The record followed here is EP0661044A1 (priority 1991, dated 1993).

The data set is described as follows: Entrapment of daunorubicin in distearoyl phosphatidylcholine-cholesterol vesicles using ethylenediamine citrate (ion-exchange loading). Conditions: lipid:drug ratio approximately at least 16:1 (mol/mol as printed); 65°C for about 10 minutes; typical value. The class given is physicochemical. The protocol: A dry powder containing a homogenous dispersion of cholesterol and distearoylphosphatidylcholine at a 1:2 molar ratio was prepared by evaporation from a 1:1 chloroform/methanol solution. […] The lipid concentration in the resulting suspension was about 20 to 25 mg/ml. This mixture was then heated to 65°C. Next, while maintaining that temperature, the mixture was homogenized using a sonicator to produce a suspension of small unilamellar vesicles. The vesicles thus obtained had diameters principally in the range of about 40 to 80 nm with little or no particles in excess of 100 nm.
Following homogenization, the mixture underwent a buffer exchange to remove the external, unentrapped, ethylenediamine citrate. This was accomplished by subjecting the mixture to tangential flow ultrafiltration. This process removes water and small molecular weight solutes while retaining lipid vesicles and their contents. Using this process, the lactose/ethylenediamine citrate buffer external to the vesicles was replaced with 250 mM lactose/50 mM glycine. The vesicle preparation was heated to about 65°C and an amount of daunorubicin (base or suitable salt form) was added to yield a lipid to drug ratio in the range of about 16:1 to 19:1 or more (w/w), but preferably 17.4:1. […]

As to `COc1cccc2c1C(=O)c1c(O)c3c(c(O)c1C2=O)C[C@@](O)(C(C)=O)C[C@@H]3O[C@H]1C[C@H](N)[C@H](O)[C@H](C)O1` [daunorubicin], the “added daunorubicin vesicle entrapped as daunorubicin-citrate” value was “greater than 90%”.
